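Five compound concentrations were applied to cells in 96-well plates for 48 hours; endpoints were derived by simple linear interpolation of the resulting dose-response curve. TGI: concentration producing complete growth inhibition.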
How the values were obtained:
Assay in all cases: NCI tumour cell line growth inhibition, 48 h
[1] = test system: 786-0 renal
[2] = test system: A498 renal
[3] = test system: A549 NSCLC
[4] = test system: ACHN renal
[5] = test system: CAKI-1 renal
[6] = test system: CCRF-CEM leukemia
[7] = test system: COLO 205 colon
[8] = test system: DLD-1 colon
[9] = test system: DMS 114 small cell lung
[10] = test system: DMS 273 small cell lung
[11] = test system: EKVX NSCLC
[12] = test system: HCC-2998 colon
[13] = test system: HCT-116 colon
[14] = test system: HCT-15 colon
[15] = test system: HL-60(TB) leukemia
[16] = test system: HOP-18 NSCLC
[17] = test system: HOP-62 NSCLC
[18] = test system: HOP-92 NSCLC
[19] = test system: HT29 colon
[20] = test system: IGROV1 ovarian
[21] = test system: K-562 leukemia
[22] = test system: KM12 colon
[23] = test system: KM20L2 colon
[24] = test system: LOX IMVI melanoma
[25] = test system: LXFL 529 NSCLC
[26] = test system: M14 melanoma
[27] = test system: M19-MEL melanoma
[28] = test system: MALME-3M melanoma
[29] = test system: MOLT-4 leukemia
[30] = test system: NCI-H226 lung
[31] = test system: NCI-H23 lung
[32] = test system: NCI-H460 lung
[33] = test system: NCI-H522 lung
[34] = test system: OVCAR-3 ovarian
[35] = test system: OVCAR-4 ovarian
[36] = test system: OVCAR-5 ovarian
[37] = test system: OVCAR-8 ovarian
[38] = test system: RXF 393 renal
[39] = test system: RXF-631 renal
[40] = test system: SF-268 CNS
[41] = test system: SF-295 CNS
[42] = test system: SF-539 CNS
[43] = test system: SK-MEL-2 melanoma
[44] = test system: SK-MEL-28 melanoma
[45] = test system: SK-MEL-5 melanoma
[46] = test system: SK-OV-3 ovarian
[47] = test system: SN12C renal
[48] = test system: SNB-19 CNS
[49] = test system: SNB-75 CNS
[50] = test system: SNB-78 CNS
[51] = test system: SR leukemia
[52] = test system: SW-620 colon
[53] = test system: TK-10 renal
[54] = test system: U251 CNS
[55] = test system: UACC-257 melanoma
[56] = test system: UACC-62 melanoma
[57] = test system: UO-31 renal
[58] = test system: XF 498 CNS
[59] = test system: RPMI-8226 leukemia
[60] = test system: MCF7 breast
[61] = test system: NCI/ADR-RES ovarian
[62] = test system: P388 leukemia
[63] = test system: P388/ADR leukemia
[64] = test system: SN12K1 renal

Measured: TGI

COc1cccc2nc3cc(C)c(C)cc3nc12
> 100 µM: [1] | [2] | [3] | [4] | [5] | [6] | [7] | [8] | [9] | [10] | [11] | [12] | [13] | [14] | [15] | [16] | [17] | [18] | [19] | [20] | [21] | [22] | [23] | [24] | [25] | [26] | [27] | [28] | [29] | [30] | [31] | [32] | [33] | [34] | [35] | [36] | [37] | [38] | [39] | [40] | [41] | [42] | [43] | [44] | [45] | [46] | [47] | [48] | [49] | [50] | [51] | [52] | [53] | [54] | [55] | [56] | [57] | [58]

CS/C(C)=N/OC(=O)NCCCCNc1ccc(N=[N+]=[N-])cc1
52 µM: [58]
62.9 µM: [34]
97.2 µM: [4]
> 100 µM: [1] | [2] | [3] | [5] | [6] | [7] | [8] | [11] | [13] | [14] | [16] | [17] | [18] | [19] | [20] | [21] | [22] | [23] | [24] | [25] | [26] | [27] | [28] | [29] | [30] | [31] | [32] | [35] | [36] | [37] | [59] | [38] | [40] | [41] | [42] | [44] | [46] | [47] | [48] | [49] | [50] | [51] | [52] | [53] | [54] | [55]
82.4 µM: [57]
56.1 µM: [12]
89.4 µM: [56]
43.2 µM: [9]
23.7 µM: [33]
38.6 µM: [45]
31.4 µM: [39]

O=C(NN1C(=O)CSC1c1ccc(C(F)(F)F)cc1)c1ccncc1 (stereo not given)
> 100 µM: [3] | [5] | [6] | [8] | [9] | [10] | [11] | [12] | [13] | [14] | [15] | [16] | [17] | [18] | [19] | [20] | [21] | [22] | [23] | [24] | [27] | [28] | [60] | [29] | [30] | [31] | [32] | [33] | [61] | [34] | [35] | [36] | [37] | [62] | [63] | [59] | [38] | [40] | [41] | [42] | [43] | [44] | [45] | [46] | [47] | [64] | [48] | [49] | [52] | [54] | [55] | [56] | [57] | [58]
> 31.6 µM: [2] | [50]

Reference: PubChem BioAssay (NCI)
